Experimental data taken from patent US6461997B1, “Triazole sulfones having herbicidal activity” (Monsanto Technology LLC, priority 1999, dated 2002).

Columns and labels:
[1] = tested on: IPOSS (annual morningglory); test: Pre-plant incorporated (PPI) herbicidal activity, warm season; assay type: in vivo, Ipomoea spp.; details: Ipomoea, PPI application, read-out: Percent inhibition IPOSS
Method: In another set of tests, the pre-plant incorporated (PPI) activity of compounds of this invention was evaluated on the same species as for the pre-emergence tests described above. In the PPI tests the following procedure, designed to simulate PPI application, was used.
A pre-prepared topsoil mixture (described above) was placed in a pot and compacted to a depth of 1.0 to 1.25 cm from the top of the pot. Seeds of each of several monocotyledonous and dicotyledonous annual plant species were placed on top of the soil. A sufficient quantity of soil to cover the seeds and level fill the pot was weighed into an open container. A known amount of the test compound was dissolved or suspended in an organic solvent and applied by spraying to this cover soil. The cover soil was thoroughly mixed to distribute the test compound throughout the cover soil, and was then applied as a cover layer over the seeds. Untreated soil was used as a cover layer for control pots. After treatment the plants were placed in a greenhouse where they received 0.64 cm of overhead irrigation. All subsequent watering consisted of a light overhead mist and/or subirrigation as needed for germination and growth. Tables 9 and 10 below relate to warm season plant species which were placed after pre-emergence treatment in a greenhouse with a 30/21° C. day/night temperature regime. Tables 11 and 12 below relates to cool season plant species placed after pre-emergence treatment in a greenhouse or growth chamber with an 18/13° C. day/night temperature regime. Only the compounds of Examples 1, 6, 8, 11, 13 and 15-20 were included in PPI tests.
(§1) Approximately 14 days after planting and treating, the plants were observed and herbicidal efficacy recorded as percent inhibition by comparison with untreated plants.

[2] = tested on: DATST (jimsonweed); test: Pre-emergence herbicidal activity, warm season; assay type: in vivo, Datura stramonium; details: for Pre-emergence activity (GR80) DATST: GR80 = lowest tested rate (300, 100, 30, 10 g/ha) with 80% or greater inhibition, approx. 14 days after treating, 30/21° C.
Procedure, shortened: (§2)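 Seeds sown in sterilised fertilised topsoil received surface-applied compound in 50:50 acetone/water, typically at 300, 100, 30 and 10 g/ha, then greenhouse-grown at 30/21° C (warm-season species) or 18/13° C (cool-season species). Percent inhibition versus untreated plants was scored at about 14 days, giving GR80; an asterisk marks activity short of 80% at the top rate.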

[3] = tested on: corn (ZEAMX); test: Selectivity test, pre-emergence, warm season crop; assay type: in vivo; details: Zea mays, pre-emergence application, read-out: Percent inhibition, crop ZEAMX
Method: (§3) The pre-emergence tests were conducted by the following procedure. Topsoil was sieved to pass through a 1.27 cm screen. Fertilizer was added to the topsoil and the mixture was then sterilized by heating. The topsoil mixture was placed in a pot and compacted to a depth of 1.0 to 1.25 cm from the top of the pot. Seeds of each of several monocotyledonous and dicotyledonous annual plant species were placed on top of the soil. Additional soil was subsequently placed over the seeds to level-fill the pot. A known amount of each test compound dissolved or suspended in an appropriate organic solvent was diluted with a 50:50 mix of acetone and water and applied to the surface of the soil. After treatment the plants were placed in a greenhouse where they received 0.64 cm of overhead irrigation. All subsequent watering consisted of a light overhead mist and/or subirrigation as needed for germination and growth. Tables 5 and 6 below relate to warm season plant species which were placed after pre-emergence treatment in a greenhouse with a 30/21° C. day/night temperature regime. Tables 7 and 8 below relates to cool season plant species placed after pre-emergence treatment in a greenhouse or growth chamber with an 18/13° C. day/night temperature regime.
as §1
(§4) Additional pre-emergence and PPI tests were conducted by the procedures described above, on warm and cool season weed species in the presence of crop species, to assess herbicidal selectivity. Crop species included in warm season tests were corn (Zea mays, ZEAMX), rice (Oryza sativa, ORYSA) and soybean (Glycine max, GLYMX). Crop species included in cool season tests were wheat (Triticum aestivum, TRZAW), barley (Hordeunm vulgare, HORVX) and oilseed rape (Brassica napus, BRSNS).
(§5) Tables 15 and 16 relate to pre-emergence and PPI tests respectively on warm season species. Table 17 relates to pre-emergence tests on cool season species.

[4] = tested on: soybean (GLYMX); test: Selectivity test, pre-emergence, warm season crop; assay type: in vivo; details: Glycine max, pre-emergence application, read-out: Percent inhibition, crop GLYMX
Method: as §3, §1, §4, §5

[5] = tested on: rice (ORYSA); test: Selectivity test, pre-emergence, warm season crop; assay type: in vivo; details: Oryza sativa, pre-emergence application, read-out: Percent inhibition, crop ORYSA
Method: as §3, §1, §4, §5

[6] = tested on: AVEFA (wild oat); test: Pre-emergence herbicidal activity, cool season; assay type: in vivo, Avena fatua; details: GR80 = lowest tested rate (300, 100, 30, 10 g/ha) with 80% or greater inhibition; approx. 14 days after treating; 18/13° C.
Procedure, shortened: as §2

[7] = tested on: XANST (cocklebur); test: Pre-emergence herbicidal activity, warm season; assay type: in vivo; details: Xanthium strumarium, pre-emergence application, read-out: Percent inhibition, weed XANST
Method: Tables 5 to 8 summarize results of tests conducted as described below to determine the pre-emergence herbicidal activity, in the form of a GR80 value, of illustrative compounds of this invention. […] Compounds of the invention were typically applied at rates of 300, 100, 30, and 10 g/ha. Where herbicidal activity was evident but 80% inhibition was not achieved at the highest rate tested, an asterisk (*) is shown in the following tables.
as §3, §1
The plant species usually regarded as weeds which were utilized in the tests are identified in the tables below according to the following legend, in which “d” indicates a dicotyledonous species and “m” a monocotyledonous species. All monocotyledonous species included in the tests herein are grasses.

[8] = Datura stramonium, pre-emergence application, read-out: Percent inhibition, weed DATST

Compound	inhibition at 300 g/ha [1] [%]	inhibition at 900 g/ha [1] [%]	inhibition at 10 g/ha [2, 8] [%]	inhibition at 30 g/ha [2, 8] [%]	inhibition at 100 g/ha [2, 8] [%]	inhibition at 300 g/ha [2, 8] [%]	Pre-emergence activity (GR80) DATST [2] [g/ha]	inhibition at 10 g/ha [3] [%]	inhibition at 30 g/ha [3] [%]	inhibition at 100 g/ha [3] [%]	inhibition at 300 g/ha [3] [%]	inhibition at 900 g/ha [3] [%]	inhibition at 10 g/ha [4] [%]	inhibition at 30 g/ha [4] [%]	inhibition at 100 g/ha [4] [%]	inhibition at 900 g/ha [4] [%]	inhibition at 10 g/ha [5] [%]	inhibition at 30 g/ha [5] [%]	inhibition at 100 g/ha [5] [%]	inhibition at 900 g/ha [5] [%]	further results
CCN(CC)C(=O)n1cnc(S(=O)(=O)C(F)(F)Br)n1 [Example 1, 3-(bromodifluoromethylsulfonyl)-1-(N,N-diethylcarbamoyl)-1,2,4-triazole]	60	80	0	0	0	0	300	0	0	0	0	10	0	0	0	0	0	0	0	10	inhibition at 10 g/ha ([1]; 10 g/ha): 0%; inhibition at 900 g/ha ([2]; Datura stramonium, pre-emergence application, 900 g/ha, read-out: Percent inhibition, weed DATST): 20%; Pre-emergence activity (GR80) AVEFA [6]: 100 g/ha; inhibition at 10 g/ha [7]: 0%; inhibition at 30 g/ha [7]: 0%
CCN(CC)C(=O)n1cnc(S(=O)(=O)C(F)F)n1 [Example 15, 1-(N,N-diethylcarbamoyl)-3-(difluoromethylsulfonyl)-1,2,4-triazole]	20	20	0	0	0	0	300	0	0	0	0	0	0	0	0	10	0	0	0	0	inhibition at 30 g/ha ([1]; 30 g/ha): 0%; inhibition at 300 g/ha ([4]; 300 g/ha): 0%; inhibition at 300 g/ha ([5]; 300 g/ha): 0%; inhibition at 10 g/ha [7]: 0%; inhibition at 30 g/ha [7]: 0%; inhibition at 100 g/ha ([7]; 100 g/ha): 0%; inhibition at 300 g/ha ([7]; 300 g/ha): 0%
